Assays:
CDK9/CycT1 = biological target: T1, CDK9/CycT1 (Homo sapiens, UniProt P50750); experiment: CDK9/CycT1 high ATP kinase assay (TR-FRET, 2 mM ATP); type: biochemical; conditions: 2 mM ATP (high ATP); median; read-out: CDK9/CyclinT1, 2 mM ATP (high ATP), IC50 (median)
T1 construct: Recombinant full-length His-tagged human CDK9 and CycT1; purchased Life Technologies PV4131; host or cells: insect cells
How it was run: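 Full-length His-tagged human CDK9/CycT1 (insect cell, ~0.5 μg/mL) preincubated 15 min at 22 °C with compound in Tris pH 8.0, MgCl2, DTT buffer before reaction with biotinylated peptide substrate at high ATP (2 mM).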

[1] = tested on: BRCA1 mRNA expression in MDA-MB-231 cells; experiment: qRT-PCR assay: BRCA1 mRNA expression in MDA-MB-231; type: cell-based, human; conditions: Homo sapiens, MDA-MB-231, Inhibition of BRCA1 mRNA expression in MDA-MB-231 cells; median; read-out: RTqPCR-MDA-MB-231, IC50, BRCA1 (median)
How it was run: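 Cells were seeded at 200,000 cells/well, left 24 h, then exposed continuously to test substances for 24 h. Total RNA (600 ng) was reverse-transcribed to cDNA and amplified by qPCR, and transcript levels were normalised to GAPDH housekeeping expression.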

[2] = tested on: MDA-MB-231, human breast cancer cells; experiment: Proliferation assay MDA-MB-231 (crystal violet, 4 days); type: cell-based; conditions: Homo sapiens, MDA-MB-231, 96 h, MDA-MB-231 cells, median, read-out: Prolif-MDA MB-231, IC50-[mol/l] (median)
How it was run: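 Cells seeded at 4,000/well in medium with 10% FCS; after 24 h, compounds added at 0.01-10 µmol/L (0.1% DMSO) for 4 days. Glutaraldehyde-fixed, crystal violet-stained, absorbance at 595 nm normalized to zero-point plate (0%) and untreated cells (100%); IC50 by 4-parameter fit.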

T1 sequence (P50750 whole entry): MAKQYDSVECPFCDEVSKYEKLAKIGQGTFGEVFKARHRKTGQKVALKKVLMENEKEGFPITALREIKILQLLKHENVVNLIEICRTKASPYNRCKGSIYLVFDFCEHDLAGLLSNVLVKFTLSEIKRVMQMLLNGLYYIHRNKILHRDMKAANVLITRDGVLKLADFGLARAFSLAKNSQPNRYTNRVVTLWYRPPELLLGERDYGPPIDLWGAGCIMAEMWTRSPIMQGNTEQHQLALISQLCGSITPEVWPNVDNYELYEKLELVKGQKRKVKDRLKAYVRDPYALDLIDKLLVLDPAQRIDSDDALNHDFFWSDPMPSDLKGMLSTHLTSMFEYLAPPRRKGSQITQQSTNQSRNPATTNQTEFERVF
T1 sequence (O60563 whole entry partner): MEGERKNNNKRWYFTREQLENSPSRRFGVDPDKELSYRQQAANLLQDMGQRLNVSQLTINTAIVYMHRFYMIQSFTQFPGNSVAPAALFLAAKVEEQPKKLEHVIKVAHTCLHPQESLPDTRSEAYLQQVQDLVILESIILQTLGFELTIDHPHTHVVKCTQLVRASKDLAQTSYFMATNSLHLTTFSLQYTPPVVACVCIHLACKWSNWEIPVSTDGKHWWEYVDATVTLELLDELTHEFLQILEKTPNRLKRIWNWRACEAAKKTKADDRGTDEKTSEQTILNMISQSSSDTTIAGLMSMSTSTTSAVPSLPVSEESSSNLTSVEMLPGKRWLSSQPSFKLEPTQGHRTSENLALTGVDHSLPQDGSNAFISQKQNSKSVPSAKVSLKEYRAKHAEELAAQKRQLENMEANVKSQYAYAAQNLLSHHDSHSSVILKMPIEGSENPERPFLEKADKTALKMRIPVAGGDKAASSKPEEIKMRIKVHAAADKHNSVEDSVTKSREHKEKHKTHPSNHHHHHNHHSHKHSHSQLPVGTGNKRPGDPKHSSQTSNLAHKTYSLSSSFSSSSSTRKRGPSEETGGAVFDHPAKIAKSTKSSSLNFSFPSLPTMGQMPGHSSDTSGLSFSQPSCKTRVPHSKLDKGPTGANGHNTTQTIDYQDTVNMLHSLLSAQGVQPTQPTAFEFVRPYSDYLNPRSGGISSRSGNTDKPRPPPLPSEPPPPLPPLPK

IC50 (CDK9/CycT1)	IC50 [1]	IC50 [2]	SMILES
12700 nM	3.21 nM	4.19 nM	Fc1ccc2[nH]c(CNc3nc(N4CCOCC4)nc4c(C(F)(F)F)cnn34)nc2c1F [Example 426, N-[(4,5-difluoro-1H-benzimidazol-2-yl)methyl]-2-(morpholin-4-yl)-8-(trifluoromethyl)pyrazolo [1,5-a][1,3,5]triazin-4-amine]
> 20000 nM	7.47 nM	32.4 nM	CN1CCN(c2nc(NCc3nc4c(F)c(F)ccc4[nH]3)n3ncc(C4CC4(F)F)c3n2)CC1 (stereo not drawn) [Example 429, N-[(4,5-difluoro-1H-benzimidazol-2-yl)methyl]-8-(2,2-difluorocyclopropyl)-2-(4-methylpiperazin-1-yl)pyrazolo[1,5-a][1,3,5]triazin-4-amine]
> 20000 nM	10.6 nM	40.3 nM	CCc1cnn2c(NCc3nc4c(OC)cccc4[nH]3)nc(N3CCOCC3)nc12 [Example 433, 8-ethyl-N-[(4-methoxy-1H-benzimidazol-2-yl)methyl]-2-(morpholin-4-yl)pyrazolo[1,5-a][1,3,5]triazin-4-amine]
> 20000 nM	10.5 nM	44.7 nM	CCc1cnn2c(NCc3nc4ccccc4[nH]3)nc(N3CCN(C)CC3)nc12 [Example 434, N-[(1H-benzimidazol-2-yl)methyl]-8-ethyl-2-(4-methylpiperazin-1-yl)pyrazolo[1,5-a][1,3,5] triazin-4-amine]
> 20000 nM	14.7 nM	34 nM	Cc1cnn2c(NCc3nc4c(F)c(F)ccc4[nH]3)nc(N(C)CC(C)(C)O)nc12 [Example 395, 1-[(4-{[(4,5-difluoro-1H-benzimidazol-2-yl)methyl]amino}-8-methylpyrazolo[1,5-a][1,3,5]triazin-2-yl)(methyl)amino]-2-methylpropan-2-ol]
> 20000 nM	2.68 nM	8.76 nM	Fc1ccc2[nH]c(CNc3nc(N4CCOCC4)nc4c(CC(F)F)cnn34)nc2c1F.O=C(O)C(F)(F)F [Example 425, trifluoroacetic acid N-[(4,5-difluoro-1H-benzimidazol-2-yl)methyl]-8-(2,2-difluoroethyl)-2-(morpholin-4-yl)pyrazolo[1,5-a][1,3,5]triazin-4-amine]
> 1630 nM	14.6 nM	83.1 nM	Fc1ccc2[nH]c(CNc3nc(N4CCOCC4)nc4c(-c5ccnnc5)cnn34)nc2c1F [Example 417, N-[(4,5-difluoro-1H-benzimidazol-2-yl)methyl]-2-(morpholin-4-yl)-8-(pyridazin-4-yl)pyrazolo[1,5-a][1,3,5]triazin-4-amine]
> 20000 nM	3.42 nM	8.27 nM	Fc1cccc2[nH]c(CNc3nc(N4CCN5CCC4CC5)nc4c(C(F)(F)F)cnn34)nc12 [Example 410, 2-(1,4-diazabicyclo[3.2.2]nonan-4-yl)-N-[(4-fluoro-1H-benzimidazol-2-yl)methyl]-8-(trifluoromethyl)pyrazolo[1,5-a][1,3,5]triazin-4-amine]
> 20000 nM	3.39 nM	28.5 nM	O=C(O)C(F)(F)F.c1ccc2[nH]c(CNc3nc(N4CCOCC4)nc4c(-c5cncs5)cnn34)nc2c1 [Example 441, trifluoroacetic acid-N-[(1H-benzimidazol-2-yl)methyl]-2-(morpholin-4-yl)-8-(1,3-thiazol-5-yl)pyrazolo[1,5-a][1,3,5]triazin-4-amine (1/1)]
> 20000 nM	9.54 nM	30.8 nM	COc1ccccc1-c1nnc(CNc2nc(N3CCOCC3)nc3c(Br)cnn23)[nH]1 [Example 61, 8-bromo-N-{[5-(2-methoxyphenyl)-4H-1,2,4-triazol-3-yl]methyl}-2-(morpholin-4-yl)pyrazolo[1,5-a][1,3,5]triazin-4-amine]
> 20000 nM	2.7 nM	21.4 nM	Clc1cc2nc(CNc3nc(N4CCOCC4)nc4c(-c5ccnnc5)cnn34)[nH]c2cc1Cl.O=C(O)C(F)(F)F [Example 440, trifluoroacetic acid N-[(5,6-dichloro-1H-benzimidazol-2-yl)methyl]-2-(morpholin-4-yl)-8-(pyridazin-4-yl)pyrazolo[1,5-a][1,3,5]triazin-4-amine]
> 20000 nM	74.6 nM	87.5 nM	FC(F)n1cc(-c2cnn3c(NCc4nc5ccccc5[nH]4)nc(N4CCOCC4)nc23)cn1 [Example 421, N-[(1H-benzimidazol-2-yl)methyl]-8-[1-(difluoromethyl)-1H-pyrazol-4-yl]-2-(morpholin-4-yl)pyrazolo[1,5-a][1,3,5]triazin-4-amine]
> 20000 nM	10 nM	48.6 nM	CCNc1nc(NCc2ncc(-c3ccccc3)[nH]2)n2ncc(C(C)C)c2n1 [Example 34, N^2-ethyl-N^4-[(5-phenyl-1H-imidazol-2-yl)methyl]-8-(propan-2-yl)pyrazolo[1,5-a][1,3,5]triazine-2,4-diamine]
> 20000 nM	2.55 nM	11.1 nM	Cc1cnn2c(NCc3nc4c(F)c(F)ccc4[nH]3)nc(N3CCOCC3)nc12 [Example 392, N-[(4,5-difluoro-1H-benzimidazol-2-yl)methyl]-8-methyl-2-(morpholin-4-yl)pyrazolo[1,5-a][1,3,5]triazin-4-amine]
> 20000 nM	1.6 nM	2.28 nM	Fc1ccc2[nH]c(CNc3nc(N4CCN5CCC4CC5)nc4c(C(F)(F)F)cnn34)nc2c1F [Example 407, 2-(1,4-diazabicyclo[3.2.2]nonan-4-yl)-N-[(4,5-difluoro-1H-benzimidazol-2-yl)methyl]-8-(trifluoromethyl)pyrazolo[1,5-a][1,3,5]triazin-4-amine]
> 20000 nM	6.19 nM	45.8 nM	CN1CCN(c2nc(NCc3nc4c(F)c(F)ccc4[nH]3)n3ncc(CC(F)(F)F)c3n2)CC1 [Example 437, N-[(4,5-difluoro-1H-benzimidazol-2-yl)methyl]-2-(4-methylpiperazin-1-yl)-8-(2,2,2-trifluoroethyl) pyrazolo[1,5-a][1,3,5]triazin-4-amine]
> 20000 nM	10 nM	81.5 nM	COc1ccccc1-c1nnc(CNc2nc(N3CCN(C)CC3)nc3c(C4CC4(F)F)cnn23)[nH]1 (stereo not drawn) [Example 430, 8-(2,2-difluorocyclopropyl)-N-{[5-(2-methoxyphenyl)-4H-1,2,4-triazol-3-yl]methyl}-2-(4-methylpiperazin-1-yl)pyrazolo[1,5-a][1,3,5]triazin-4-amine]
> 20000 nM	4.17 nM	28.4 nM	CCc1cnn2c(NCc3nc4ccccc4[nH]3)nc(N3CCOCC3)nc12 [Example 431, N-[(1H-benzimidazol-2-yl)methyl]-8-ethyl-2-(morpholin-4-yl)pyrazolo[1,5-a][1,3,5]triazin-4-amine]

SMILES	IC50 (CDK9/CycT1)	IC50 [1]	IC50 [2]
Cc1cnn2c(NCc3nc4c(F)c(F)ccc4[nH]3)nc(N3CC4CCC(C3)N4)nc12 [Example 400, 2-(3,8-diazabicyclo[3.2.1]octan-3-yl)-N-[(4,5-difluoro-1H-benzimidazol-2-yl)methyl]-8-methylpyrazolo[1,5-a][1,3,5]triazin-4-amine]	> 20000 nM	14 nM	20.3 nM
